# Data from patent US20160058753A1, “Nalmefene for Treatment of Patients with Mood Disorder” (H. LUNDBECK A/S, priority 2013, published 2016).
# Assays:
# Mice (NMRI) [1] = assay: Forced swim test in mouse; assay type: in vivo; settings: for Duration of immobility, Mean ± SEM: last 4 of 6 minutes
# Procedure: The method, which detects antidepressant activity, follows that described by Porsolt et al (Arch. Int. Pharmacodyn., 229, 327-336, 1977). Mice forced to swim in a situation from which they cannot escape eventually become immobile. Antidepressants decrease the duration of immobility.
# Nalmefene was tested as the sole active compound. Mice (NMRI) were individually placed in a cylinder (height=24 em; diameter=13 em) containing 10 cm water (22° C.) from which they cannot escape. The mice were placed in the water for 6 minutes and the duration of immobility during the last 4 minutes was measured. The latency to the first bout of immobility was also recorded starting from the beginning of the test.
# 10 mice were studied per group. The test was performed blind. Each test substance was evaluated at 3 doses (0.1, 1 and 10 mg/kg), administered s.c. 30 minutes before the test, and compared with a vehicle control group.
# Imipramine (32 mg/kg s.c.), administered under the same experimental conditions, was used as reference substance. The experiment therefore included 8 groups.
# Data with the test substance were analysed by comparing treated groups with vehicle control using one-way ANOVA followed by post-hoc Dunnett's tests. Data with the reference substance were analysed using unpaired Student's t tests. Due to the number of groups, the study was conducted over 2 separate sub-experiments, each subexperiment including 5 mice per group.
# κ receptor = κ receptor (Homo sapiens, UniProt P41145); settings: in vitro; cited from earlier work
# Mice (NMRI) [2] = assay: Marble burying test in mouse; assay type: in vivo; settings: for Number of marbles covered by sawdust, Mean ± SEM: 30 minute test, 25 marbles
# Description: The method, which detects anxiolytic/tranquillizing activity, follows that described by Broekkamp et al (Eur. J. Pharmacol., 126, 223-229, 1986). Mice exposed to novel objects (marbles) will bury them in the sawdust floor covering. Anxiolytics decrease the number of marbles buried at non-sedative doses.
# Mice (NMRI) were individually placed in transparent plastic cages (33×21×18 cm) with 5 cm of sawdust on the floor and 25 marbles grouped in the centre of the cage. The cage was covered with an inverted plastic cage. Each test cage, together with the marbles, was impregnated with mouse odor before-hand by leaving 10 mice in the cage for 15 minutes. These mice then played no further role in the experiment.
# Nalmefene was tested in the marble burying model as the sole active compound. The number of marbles covered by sawdust (⅔ or more) was counted at the end of a 30 minute test. 12 mice were studied per group. The test was performed blind. Nalmefene was evaluated at 3 doses (0.01, 0.1 and 1 mg/kg), administered s.c. 30 minutes before the test, and compared with a vehicle control group. Clobazam (8 mg/kg s.c.), administered under the same experimental conditions, was used as reference substance. The experiment therefore included 8 groups.
# Data with Nalmefene were analysed by comparing treated groups with vehicle control using Kruskall-Wallis test followed by Mann-Whitney U tests. Data with the reference substance were analysed using Mann-Whitney U tests. Due to the number of groups, the study was conducted over 2 separate sub-experiments, each sub-experiment including 6 mice per group.
# δ receptor = δ receptor (Homo sapiens, UniProt P41143); settings: in vitro; cited from earlier work
# [3] = tested on: patients with alcohol dependence; assay: Study 12013A: clinical efficacy on the reduction of alcohol consumption (HDD, TAC); assay type: in vivo, human; settings: for HDD / TAC: patients with a mood disorder at baseline according to MINI assessment
# Description: (§1) The diagnosis of alcohol dependence was based on the DSM-IV-TR criteria. For this purpose, the investigator interviewed the patient in a structured way by using the Mini International Neuropsychiatric Interview (MINI) standardized interview (Lecrubier et al. The Mini International Neuropsychiatric Interview (M.I.N.I.). A short diagnostic structured interview: Reliability and validity according to the CIDI. European Psychiat. (1997), 12: 224-31). The M.I.N.I. is designed as a brief structured interview for the major Axis I psychiatric disorders in DSM-IV. Its use permits a standardised assessment of the diagnostic criteria. The M.I.N.I. interview was used at the screening visit. Clinicians used it after a training session. The M.I.N.I. approach was used to select patients with a mood disorder at baseline in Example 3.
# (§2) Another approach to identify patients with a mood disorder is by defining mood disorder at baseline as any ongoing medical history coded by the Medical Dictionary for Regulatory Activities (MedDRA) Preferred Term as ‘Affective Disorder’, ‘Bipolar Disorder’, ‘Depressed Mood’, ‘Depression’, ‘Dysthymic Disorder’, ‘Hypomania’, ‘Major Depression’, ‘Mood Disorder Due To A General Medical Condition’ and/or ‘Seasonal Affective Disorder’. In examples 1 and 2 below patients classified with a mood disorder at baseline was selected based on said MedDRA terms.
# The efficacy of nalmefene on the reduction of alcohol consumption in patients with alcohol dependence (DSM-IV) was evaluated in a multi-national, multi-site, randomised, double blind, two parallel group, placebo controlled 1 year safety study (Study 12013A). The efficacy was evaluated over 24 weeks of treatment. The study included outpatients, aged ≧18 years, with a primary diagnosis of alcohol dependence. […] Patients with psychiatric co-morbidity (that is, patients who used stable doses of antipsychotics and/or certain antidepressants) were also included unless the treatment of the psychiatric comorbidity had to take priority over treatment of the drinking problem, or was likely to interfere with study treatment or impairs treatment compliance.
# The study included 639 patients, 482 of whom were treated with nalmefene 18 mg in an as-needed dosing regimen. A motivational and adherence enhancing intervention was administered to all the patients to support the patients in changing their behavior and to enhance adherence to treatment.
# The efficacy of nalmefene on the reduction of alcohol consumption was measured using two co-primary endpoints: the change from baseline to Month 6 in the monthly number of heavy drinking days (HDDs) and the change from baseline to Month 6 in the average daily total alcohol consumption (TAC). A HDD was defined as a day with a consumption ≧60 g alcohol for men and ≧40 g for women.
# (§3) Table 10 below outlines drinking variables and POMS TMD score patients from the 12013A study with a mood disorder at baseline who were classified based on MINI standardized interviews.
# μ receptor = μ receptor (Homo sapiens, UniProt P35372); settings: in vitro; cited from earlier work
# [4] = tested on: patients with alcohol dependence; assay: Study 12013A: clinical efficacy measured by POMS score; assay type: in vivo, human; settings: for POMS TMD score: patients with a mood disorder at baseline according to MINI assessment
# Description: The term “POMS” is an abbreviation of “profile of mood states” and refers to a selfreport inventory scale developed to assess the effect of e.g. new medication on mood states and mood changes. The scale measures six domains: Tension-Anxiety, Depression-Rejection, Anger-Hostility, Vigour-Activity, Fatigue-Inertia, and Confusion-Bewilderment. A total mood disturbance (TMD) score can be calculated. In general, a lower POMS score indicates a better mood state than a higher score except for vigour-activity, for which a higher POMS score indicates a better mood state. The scale has been described e.g. by McNair et al., Profile of mood states. San Diego, Calif.: Educational and Industrial Testing Service and by Nyenhios and Yamamoto, J. Clin. Psychology, (1999), Vol. 55(1): 79-86.
# as §1, §2
# Assessment of POMs scores in Study 12013A was used to evaluate the effect of nalmefene on mood states and mood changes throughout the study. The change in POMS scores from baseline are illustrated in FIGS. 3-9.
# In general, a lower POMS score indicates a better mood state than a higher score except for vigour, illustrated in FIGS. 7a and 7b, wherein a higher POMS score indicates a better mood state.
# as §3
# Rats (Wistar) = assay: Forced swim test in rats; assay type: in vivo, rat; settings: 0.01, 0.1 and 1 mg/kg s.c. 30 minutes before the test, versus vehicle
# Procedure: The method, which detects antidepressant activity, follows that described by Porsolt et al (Eur. J. Pharmacol., 47, 379-391, 1978). Rats forced to swim in a situation from which they cannot escape eventually become immobile. Antidepressants decrease the duration of immobility.
# Nalmefene was tested as the sole active compound. Rats (Wistar) were individually placed in a cylinder (height=40 cm; diameter=20 cm) containing 13 cm water (25° C.) for 15 minutes on the first day of the experiment (Session 1) and were then placed back in the water 24 hours later for a 5 minute test (Session 2). The duration of immobility during the 5 minute test was measured. 6 rats were studied per group. The test was performed blind. Nalmefene was evaluated at 3 doses (0.01, 0.1 and 1 mg/kg), administered s.c. 30 minutes before the test, and compared with a vehicle control group.
# Data with the test substance were analysed by comparing treated groups with vehicle control using one-way ANOVA followed by post-hoc Dunnett's tests. Data with the reference substance were analysed using unpaired Student's t tests.
# [5] = tested on: patients with comorbid bipolar disorders; settings: literature; cited from earlier work
# [6] = 0.1 mg/kg s.c. 30 minutes before the test
# [7] = 1 mg/kg s.c. 30 minutes before the test
# [8] = 10 mg/kg s.c. 30 minutes before the test
# [9] = 0.01 mg/kg s.c. 30 minutes before the test
# [10] = 1 year, nalmefene 18 mg as-needed
# μ receptor, sequence (P35372 whole entry): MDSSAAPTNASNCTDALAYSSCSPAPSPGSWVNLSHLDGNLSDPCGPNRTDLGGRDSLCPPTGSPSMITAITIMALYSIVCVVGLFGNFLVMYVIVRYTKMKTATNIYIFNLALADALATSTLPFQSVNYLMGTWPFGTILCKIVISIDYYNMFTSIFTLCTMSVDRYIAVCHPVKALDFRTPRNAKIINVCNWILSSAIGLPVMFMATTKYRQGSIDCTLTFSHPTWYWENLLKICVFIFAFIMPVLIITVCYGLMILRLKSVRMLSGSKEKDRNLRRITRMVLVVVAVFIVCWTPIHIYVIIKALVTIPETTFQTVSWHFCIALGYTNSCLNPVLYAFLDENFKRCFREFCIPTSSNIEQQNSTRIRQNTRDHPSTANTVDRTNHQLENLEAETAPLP
# δ receptor, sequence (P41143 whole entry): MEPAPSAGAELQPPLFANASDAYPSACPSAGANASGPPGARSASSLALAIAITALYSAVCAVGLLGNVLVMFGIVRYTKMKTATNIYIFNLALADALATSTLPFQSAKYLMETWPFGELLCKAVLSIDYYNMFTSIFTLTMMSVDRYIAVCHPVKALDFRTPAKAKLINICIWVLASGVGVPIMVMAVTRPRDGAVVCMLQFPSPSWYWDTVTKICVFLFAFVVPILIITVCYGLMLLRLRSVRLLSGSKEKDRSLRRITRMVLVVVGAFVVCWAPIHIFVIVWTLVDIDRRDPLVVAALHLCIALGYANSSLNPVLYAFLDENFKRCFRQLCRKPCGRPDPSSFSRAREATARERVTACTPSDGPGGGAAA
# κ receptor, sequence (P41145 whole entry): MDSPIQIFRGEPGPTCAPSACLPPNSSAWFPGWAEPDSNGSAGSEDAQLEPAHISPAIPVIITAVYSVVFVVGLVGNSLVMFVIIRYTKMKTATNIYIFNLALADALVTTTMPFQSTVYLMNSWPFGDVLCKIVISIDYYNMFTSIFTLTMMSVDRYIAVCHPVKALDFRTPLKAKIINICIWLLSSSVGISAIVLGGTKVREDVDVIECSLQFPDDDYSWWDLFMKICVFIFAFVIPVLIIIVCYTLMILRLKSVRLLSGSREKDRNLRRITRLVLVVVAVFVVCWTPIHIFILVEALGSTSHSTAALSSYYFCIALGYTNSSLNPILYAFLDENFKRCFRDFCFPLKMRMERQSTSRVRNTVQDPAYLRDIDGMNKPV
smiles,measurement,setting,value
"C=C1CC[C@@]2(O)[C@H]3Cc4ccc(O)c5c4[C@@]2(CCN3CC2CC2)[C@H]1O5 [Nalmefene, 17-(cyclopropylmethyl)-4,5-alpha-epoxy-6-methylenemorphinan-3,14-diol]","Duration of immobility, % compared with vehicle",Mice (NMRI) [1]; [6],+6%
same,"Duration of immobility, Mean ± SEM",Mice (NMRI) [1]; [6],206 ± 7 s
same,latency to immobility,"Mice (NMRI) [1]; 1 mg/kg s.c. 30 minutes before the test, versus vehicle",did not significantly affect
same,"Duration of immobility, Mean ± SEM",Mice (NMRI) [1]; [7],140 ± 22 s
same,"Duration of immobility, % compared with vehicle","Mice (NMRI) [1]; 1 mg/kg s.c. 30 minutes before the test, p<0.05",−28%
same,"Duration of immobility, % compared with vehicle",Mice (NMRI) [1]; [8],−3%
same,"Duration of immobility, Mean ± SEM",Mice (NMRI) [1]; [8],189 ± 11 s
same,effect in forced swim test,Mice (NMRI) [1]; 0.1 or 10 mg/kg s.c.,no effects
same,activity at the κ receptor,κ receptor,partial agonist activity
same,"Number of marbles covered by sawdust, % compared with vehicle",Mice (NMRI) [2]; [9],−5%
same,"Number of marbles covered by sawdust, Mean ± SEM",Mice (NMRI) [2]; [9],23.5 ± 1.2
same,"Number of marbles covered by sawdust, Mean ± SEM",Mice (NMRI) [2]; [6],21.5 ± 1.2
same,"Number of marbles covered by sawdust, % compared with vehicle","Mice (NMRI) [2]; 0.1 mg/kg s.c. 30 minutes before the test, p<0.01",−13%
same,"Number of marbles covered by sawdust, % compared with vehicle","Mice (NMRI) [2]; 0.1 mg/kg s.c. 30 minutes before the test, p<0.01, listed as nalmefene",−13%
same,"Number of marbles covered by sawdust, % compared with vehicle",Mice (NMRI) [2]; [7],−10%
same,"Number of marbles covered by sawdust, Mean ± SEM",Mice (NMRI) [2]; [7],22.4 ± 1.4
same,effect on number of marbles covered by sawdust,Mice (NMRI) [2]; 0.01 or 1 mg/kg s.c.,no significant effects
same,activity at the δ receptor,δ receptor,antagonist activity
same,HDD,[3]; [10],6.0
same,TAC,[3]; [10],20.8 g/day
same,HDD,"[3]; Baseline, N=22",16.0
same,TAC,"[3]; Baseline, N=22",80.3 g/day
same,alcohol consumption,[3]; patients with a mood disorder at baseline (MedDRA),significally reduced the alcohol consumption
same,difference between nalmefene and placebo in HDDs,"[3]; patients with a mood disorder at baseline compared with patients without, week 24, FIG. 1",more pronounced
same,difference between nalmefene and placebo in TAC,"[3]; patients with a mood disorder at baseline compared with patients without, week 24, FIG. 2",more pronounced
same,reducing TAC versus placebo,[3]; total patient group,superior to placebo
same,reducing the number of HDDs versus placebo,[3]; total patient group,superior to placebo
same,activity at the μ receptor,μ receptor,antagonist activity
same,POMS TMD score,[4]; [10],37
same,POMS TMD score,"[4]; Baseline, N=22",68
same,general mood state (POMS data overall),[4]; patients with a mood disorder,general mood state improves
same,POMS score at the end of the study versus placebo,"[4]; patients with a mood disorder at baseline, FIGS. 3b-9b",better POMS score
same,"POMS scores versus placebo: total mood disturbance, tension-anxiety, depression-rejection, anger-hostility and confusion","[4]; patients with a mood disorder at baseline, weeks 16-24, FIGS. 3b, 4b, 5b, 6b, 9b",better POMS scores
same,pattern in POMS score versus placebo,"[4]; patients without a mood disorder at baseline, FIGS. 3a-9a",no pronounced difference between nalmefene and placebo
same,duration of immobility during the 5 minute test,Rats (Wistar),No significant effect
OCCOCCN1CCN(C2=Nc3ccccc3Sc3ccccc32)CC1 [quetiapine],efficacy on measures of alcohol use and dependence,[5],ineffective
O=C1CCc2ccc(OCCCCN3CCN(c4cccc(Cl)c4Cl)CC3)cc2N1 [aripiprazole],efficacy on measures of alcohol use and dependence,[5],ineffective
